Patent publication US12187722B2, “Small molecule inhibitors of TEAD transcription factors” (The General Hospital Corporation, priority 2019, dated 2025)
pIC50: −log10 of the molar value. “And” between values parts separate entries of the source, which are not always exact repeats. Equal values may be shown once. Read-outs that look alike come from different tables or passages of the source.

How the values were obtained:
TEAD2 [1] = molecular target: T1, TEAD2 (Homo sapiens (Human), UniProt Q15562); experiment: CMP assay (CPM fluorescence detection of free CoA); assay type: biochemical
Protocol: 7-Diethylamino-3-(4′-Maleimidylphenyl)-4-Methylcoumarin (CPM), which reacts with thiol of CoA liberated in the enzymatic reaction, and gives fluorescent signal (excitation ˜350-380, emission-460-480). The assay detects the product (free CoA) which is produced from palmitoyl-CoA as a method to detect the enzymatic activity. Test compounds that inhibit TEAD activity are therefore able to block the CMP fluorescent signal.
TEAD2/4 protein (10 μL of a 50 ng/μL solution) and a solution the test compound (0.5 μL, variable concentration) were pre-incubated for 30 min at r.t. A mixture prepared from MES pH 6.4 buffer (6.5 μL of a 50 mM solution), EDTA (1 μL of a 20 mM solution), palmitoyl-CoA (1 μL of a 20 μM solution), and 7-diethylamino-3-(4′-maleimidylphenyl)-4-methylcoumarin (1 μL of a 10 μM solution) was added and the resulting mixture was mixed well using a pipette. The solution was then incubated at r.t. for 30-120 min. in the dark, and fluorescence was detected at […] every 30 min. until the fluorescence signal is saturated. An IC50 for the ability of the compound to inhibit fluorescence is calculated from the results.

TEAD2 [2] = molecular target: T1, TEAD2; experiment: In vitro palmitoylation (TEAD2 autopalmitoylation, streptavidin blot); assay type: biochemical; details: compound at 10 μM
Summary of the method: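 Recombinant GST- or His6-TEAD2 (500 ng) preincubated 15 min with compound, then 30 min with 1 μM alkyne palmitoyl-CoA; click-labelled with biotin-azide (1 h, RT). Streptavidin-HRP blot band intensity quantified after SDS-PAGE; inhibition of autopalmitoylation relative to DMSO control.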

[3] = Table 3, unit inferred, read-out: TEAD2 palmitoylation IC50

T1 sequence (Q15562 whole entry): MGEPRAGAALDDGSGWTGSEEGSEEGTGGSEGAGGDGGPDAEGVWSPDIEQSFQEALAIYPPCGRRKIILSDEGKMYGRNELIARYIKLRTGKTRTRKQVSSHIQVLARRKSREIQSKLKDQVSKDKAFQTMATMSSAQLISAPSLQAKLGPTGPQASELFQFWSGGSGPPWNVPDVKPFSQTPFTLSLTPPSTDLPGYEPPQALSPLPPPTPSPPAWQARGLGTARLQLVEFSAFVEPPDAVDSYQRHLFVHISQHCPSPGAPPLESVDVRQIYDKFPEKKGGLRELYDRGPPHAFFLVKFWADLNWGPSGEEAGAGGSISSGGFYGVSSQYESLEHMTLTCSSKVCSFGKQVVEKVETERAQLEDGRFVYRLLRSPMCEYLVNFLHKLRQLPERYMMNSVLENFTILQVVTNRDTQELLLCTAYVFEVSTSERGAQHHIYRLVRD

C=CC(=O)c1ccccc1Nc1cccc(Nc2ccc(C34CC5CC(CC(C5)C3)C4)cc2)c1
pIC50 (TEAD2 [1]; CMP assay, read-out: CMP IC50): 5.29 | inhibition at 10 µM (TEAD2 [2]): 70%

COc1ccc(Nc2ccc(N(C)c3ccc(C(F)(F)F)cc3)cc2)c(C(=O)O)c1 [CP-521]
pIC50 (TEAD2 [1]; [3]): 5.84 | inhibition at 10 µM (TEAD2 [2]; Table 3): 93%

COc1ccc(Nc2ccc(N(C)c3ccc(C4CCCCC4)cc3)cc2)c(C(=O)O)c1 [CP-522]
pIC50 (TEAD2 [1]; [3]): 5.82 | inhibition at 10 µM (TEAD2 [2]; Table 3): 96%

COc1ccc(Nc2ccc(N(C)c3ccc(S(F)(F)(F)(F)F)cc3)cc2)c(C(=O)O)c1 [CP-528]
pIC50 (TEAD2 [1]; [3]): 6.42 | inhibition at 10 µM (TEAD2 [2]; Table 3): 76%

COc1ccc(Nc2ccc(N(C)c3ccc(C4CC5CCC4C5)cc3)cc2)c(C(=O)O)c1 (stereo not shown) [CP-538]
pIC50 (TEAD2 [1]; [3]): 6.17 | inhibition at 10 µM (TEAD2 [2]; Table 3): 85%

COc1ccc(Nc2ccc(N(C)c3ccc(OC(F)(F)F)cc3)cc2)c(C(=O)O)c1 [CP-548]
pIC50 (TEAD2 [1]; [3]): 6.35 | inhibition at 10 µM (TEAD2 [2]; Table 3): 86%

CC(C)N(c1ccc(N(C)c2ccc(C34CC5CC(CC(C5)C3)C4)cc2)cc1)c1ccccc1C(=O)O [Compound 226]
inhibition at 10 µM (TEAD2 [2]; Table 2): 17%

CC12CC3CC(C)(C1)CC(c1ccc(NC(=O)c4ccc(Nc5cccc(C(=O)O)n5)cc4)cc1)(C3)C2 [Compound 227]
inhibition at 10 µM (TEAD2 [2]; Table 2): 58%

O=C(Nc1ccccc1C(=O)O)c1ccc(Nc2ccc(C34CC5CC(CC(C5)C3)C4)cc2Br)cc1 [Compound 228]
inhibition at 10 µM (TEAD2 [2]; Table 2): 89%

O=C(Nc1ccccc1C(=O)O)c1ccc(Nc2ccc(C34CC5CC(CC(C5)C3)C4)cc2Cl)cc1 [Compound 229]
inhibition at 10 µM (TEAD2 [2]; Table 2): 91%

CN(c1cccc(C(=O)Nc2ccc(C34CC5CC(CC(C5)C3)C4)cc2)c1)c1ccccc1C(=O)O [Compound 230]
inhibition at 10 µM (TEAD2 [2]; Table 2): 0%

CN(c1ccc(S(=O)(=O)N(C)c2ccc(C34CC5CC(CC(C5)C3)C4)cc2)cc1)c1ncccc1C(=O)O [Compound 231]
inhibition at 10 µM (TEAD2 [2]; Table 2): 0%

CN(c1ccc(Nc2cccc(C(=O)NC34CC5CC(CC(C5)C3)C4)c2)cc1)c1ccccc1C(=O)O [Compound 232]
inhibition at 10 µM (TEAD2 [2]; Table 2): 33%

CN(c1ccc(N(C)c2ccccc2C(=O)O)cc1)c1cccc(C(=O)NC23CC4CC(CC(C4)C2)C3)c1 [Compound 233]
inhibition at 10 µM (TEAD2 [2]; Table 2): 9%

O=C(Nc1ccc(C23CC4CC(CC(C4)C2)C3)cc1)c1cccc(Nc2ncccc2C(=O)O)c1 [Compound 234]
inhibition at 10 µM (TEAD2 [2]; Table 2): 64%

O=C(O)c1cccc(Nc2cccc(C(=O)Nc3ccc(C45CC6CC(CC(C6)C4)C5)cc3)c2)c1 [Compound 235]
inhibition at 10 µM (TEAD2 [2]; Table 2): 84%

CC(C)c1ccccc1-c1ccc(Oc2ccc(N(C)c3ccccc3C(=O)O)cc2)c(Cl)c1 [Compound 236]
inhibition at 10 µM (TEAD2 [2]; Table 2): 62%

O=C(Nc1ccccc1C(=O)O)c1ccc(Oc2ccc(C34CC5CC(CC(C5)C3)C4)cc2)cc1 [Compound 237]
inhibition at 10 µM (TEAD2 [2]; Table 2): 93%

COc1cccc(N(C)c2ccc(N(C)c3ccc(C45CC6CC(CC(C6)C4)C5)cc3)cc2)c1C(=O)O [Compound 238]
inhibition at 10 µM (TEAD2 [2]; Table 2): 100%

O=C(Nc1ccccc1C(=O)O)c1cccc(Nc2ccc(C34CC5CC(CC(C5)C3)C4)cc2)c1 [Compound 239]
% of inhibition of TEAD2 palmitoylation at 10 μM (TEAD2 [2]; Table 2): 100% | inhibition at 10 µM (TEAD2 [2]; Table 2): 98%

O=C(O)c1cccc(NC(=O)c2cccc(Nc3ccc(C45CC6CC(CC(C6)C4)C5)cc3)c2)c1 [Compound 240]
inhibition at 10 µM (TEAD2 [2]; Table 2): 62%

O=C(Nc1ccc(C23CC4CC(CC(C4)C2)C3)cc1Cl)c1cccc(Nc2ncccc2C(=O)O)c1 [Compound 241]
inhibition at 10 µM (TEAD2 [2]; Table 2): 100%

O=C(Nc1ccc(C23CC4CC(CC(C4)C2)C3)cc1Cl)c1cccc(Nc2ccccc2C(=O)O)c1 [Compound 242]
% of inhibition of TEAD2 palmitoylation at 10 μM (TEAD2 [2]; Table 2): 35% and 58%

CN(c1ccc(CC(=O)Nc2ccccc2C(=O)O)cc1)c1ccc(C23CC4CC(CC(C4)C2)C3)cc1 [Compound 243]
inhibition at 10 µM (TEAD2 [2]; Table 2): 67%

c1ccc2c(c1)ccn2-c1ccc(Nc2ccc(C34CC5CC(CC(C5)C3)C4)cc2)cc1 [Compound 244]
inhibition at 10 µM (TEAD2 [2]; Table 2): 8%

O=C(O)/C=C/c1ccccc1Nc1ccc(Nc2ccc(C34CC5CC(CC(C5)C3)C4)cc2)cc1 [Compound 245]
inhibition at 10 µM (TEAD2 [2]; Table 2): 87%

O=C(O)c1ccccc1Nc1cccc(S(=O)(=O)Nc2ccc(C34CC5CC(CC(C5)C3)C4)cc2)c1 [Compound 246]
inhibition at 10 µM (TEAD2 [2]; Table 2): 99%

O=C(Nc1ccc(C23CC4CC(CC(C4)C2)C3)cc1)c1ccc(Cl)c(Nc2ncccc2C(=O)O)c1 [Compound 247]
inhibition at 10 µM (TEAD2 [2]; Table 2): 95%

COc1cccc(Nc2cccc(C(=O)Nc3ccc(C45CC6CC(CC(C6)C4)C5)cc3)c2)c1C(=O)O [Compound 248]
inhibition at 10 µM (TEAD2 [2]; Table 2): 32%

COc1cc(Nc2ccc(Nc3ccc(C45CC6CC(CC(C6)C4)C5)cc3)cc2)c(C(=O)O)c(OC)c1 [Compound 249]
inhibition at 10 µM (TEAD2 [2]; Table 2): 1%

COc1ccc(C(=O)O)c(Nc2ccc(Nc3ccc(C45CC6CC(CC(C6)C4)C5)cc3)cc2)c1 [Compound 251]
inhibition at 10 µM (TEAD2 [2]; Table 2): 27%

CCCCN(c1ccccc1)c1ccc(Nc2ccc(Nc3ncccc3C(=O)O)cc2)cc1 [Compound 255]
inhibition at 10 µM (TEAD2 [2]; Table 2): 50%

CCCCN(CCCC)C(=O)c1ccc(Nc2ccc(Nc3ncccc3C(=O)O)cc2)cc1 [Compound 256]
inhibition at 10 µM (TEAD2 [2]; Table 2): 46%

O=C(NC12CC3CC(CC(C3)C1)C2)c1ccc(Nc2ccc(Nc3ncccc3C(=O)O)cc2)cc1 [Compound 257]
inhibition at 10 µM (TEAD2 [2]; Table 2): 55%

CCCCN(c1ccccc1)c1ccc(Nc2ccc(Nc3ccccc3C(=O)O)cc2)c(Cl)c1 [Compound 258]
inhibition at 10 µM (TEAD2 [2]; Table 2): 0%

CCCCN(c1ccccc1)c1ccc(Nc2ccc(Nc3ncccc3C(=O)O)cc2)c(Cl)c1 [Compound 259]
inhibition at 10 µM (TEAD2 [2]; Table 2): 83%

O=C(O)c1ccccc1Nc1ccc(S(=O)(=O)Nc2ccc(C34CC5CC(CC(C5)C3)C4)cc2Cl)cc1 [Compound 260]
inhibition at 10 µM (TEAD2 [2]; Table 2): 71%

O=C(O)c1cccnc1Nc1ccc(S(=O)(=O)Nc2ccc(C34CC5CC(CC(C5)C3)C4)cc2Cl)cc1 [Compound 261]
inhibition at 10 µM (TEAD2 [2]; Table 2): 98%

CC12CC3CC(C)(C1)CC(c1ccc(NC(=O)c4cccc(Nc5ncccc5C(=O)O)c4)c(Cl)c1)(C3)C2 [Compound 262]
inhibition at 10 µM (TEAD2 [2]; Table 2): 85%

CC12CC3CC(C)(C1)CC(c1ccc(NS(=O)(=O)c4ccc(Nc5ccccc5C(=O)O)cc4)c(Cl)c1)(C3)C2 [Compound 264]
inhibition at 10 µM (TEAD2 [2]; Table 2): 0%

CC12CC3CC(C)(C1)CC(c1ccc(NS(=O)(=O)c4ccc(Nc5ncccc5C(=O)O)cc4)c(Cl)c1)(C3)C2 [Compound 265]
inhibition at 10 µM (TEAD2 [2]; Table 2): 78%

CCCCN(c1ccccc1)c1ccc(NC(=O)c2cccc(Nc3ncccc3C(=O)O)c2)cc1 [Compound 266]
inhibition at 10 µM (TEAD2 [2]; Table 2): 81%

O=C(NCc1ccc(C23CC4CC(CC(C4)C2)C3)cc1)c1ccc(Nc2ccccc2C(=O)O)cc1 [Compound 267]
inhibition at 10 µM (TEAD2 [2]; Table 2): 36%

O=C(NCc1ccc(C23CC4CC(CC(C4)C2)C3)cc1)c1cccc(Nc2ccccc2C(=O)O)c1 [Compound 268]
inhibition at 10 µM (TEAD2 [2]; Table 2): 10%

COCCOc1ccc(Nc2ccc(N(C)c3ccc(C45CC6CC(CC(C6)C4)C5)cc3)cc2)c(C(=O)O)c1 [Compound 269]
inhibition at 10 µM (TEAD2 [2]; Table 2): 100%

NC(=O)c1ccccc1Nc1ccc(Nc2ccc(C34CC5CC(CC(C5)C3)C4)cc2Cl)cc1 [compound 272]
inhibition at 10 µM (TEAD2 [2]; Table 2): 77%

CNC(=O)c1ccccc1Nc1ccc(Nc2ccc(C34CC5CC(CC(C5)C3)C4)cc2Cl)cc1 [compound 276]
inhibition at 10 µM (TEAD2 [2]; Table 2): 52%

O=C(O)c1ccccc1C(=O)Nc1ccc(Nc2ccc(C34CC5CC(CC(C5)C3)C4)cc2Cl)cc1 [compound 279]
inhibition at 10 µM (TEAD2 [2]; Table 2): 98%

NC1(C(=O)Nc2ccc(Nc3ccc(C45CC6CC(CC(C6)C4)C5)cc3Cl)cc2)CC1 [compound 280]
inhibition at 10 µM (TEAD2 [2]; Table 2): 17%

O=C(O)c1ccccc1Nc1cnc(Nc2ccc(C34CC5CC(CC(C5)C3)C4)cc2Cl)cn1 [compound 283]
inhibition at 10 µM (TEAD2 [2]; Table 2): 99%

O=C(O)c1ccccc1Nc1ncc(Nc2ccc(C34CC5CC(CC(C5)C3)C4)cc2Cl)cn1 [compound 284]
inhibition at 10 µM (TEAD2 [2]; Table 2): 14%

O=C(O)c1ccccc1C(=O)Nc1ccc(Nc2ccc(C34CC5CC(CC(C5)C3)C4)cc2Cl)cc1 [compound 286, 2-((4-(4-((3r,5r,7r)-adamantan-1-yl)-2-chlorophenyl)amino)phenyl)carbamoyl) benzoic acid]
% of inhibition of TEAD2 palmitoylation at 10 μM (TEAD2 [2]; Table 2, listed as 293): 86%

O=C(O)C1=C(C(=O)Nc2ccc(C34CC5CC(CC(C5)C3)C4)cc2)CCC1 [compound 289]
inhibition at 10 µM (TEAD2 [2]; Table 2): 88%

O=C(O)C1=C(C(=O)Nc2ccc(Nc3ccc(C45CC6CC(CC(C6)C4)C5)cc3Cl)cc2)CCC1 [compound 290]
inhibition at 10 µM (TEAD2 [2]; Table 2): 69%

O=C(O)c1ccccc1C(=O)Nc1cccc(Nc2ccc(C34CC5CC(CC(C5)C3)C4)cc2)c1 [compound 292]
inhibition at 10 µM (TEAD2 [2]; Table 2): 97%

COc1ccc(Nc2ccc(N(C)c3ccc(C(F)(F)F)cc3)cc2)c(C(N)=O)c1 [compound 429]
inhibition at 10 µM (TEAD2 [2]; Table 2): 47%

CNC(=O)c1cc(OC)ccc1Nc1ccc(N(C)c2ccc(C(F)(F)F)cc2)cc1 [compound 430]
inhibition at 10 µM (TEAD2 [2]; Table 2): 63%

COc1ccc(Nc2ccc(N(C)c3ccc(C(F)(F)F)cc3)cc2)c(C(=O)N(C)C)c1 [compound 431]
inhibition at 10 µM (TEAD2 [2]; Table 2): 37%

O=C(O)c1ccccc1Nc1cnc(Oc2ccc(C34CC5CC(CC(C5)C3)C4)cc2Cl)cn1 [compound 440]
inhibition at 10 µM (TEAD2 [2]; Table 2): 75%

O=C(O)c1ccccc1Nc1cnc(Oc2ccc(C3CCCCC3)cc2Cl)cn1 [compound 441]
inhibition at 10 µM (TEAD2 [2]; Table 2): 79%
